Format in all cases: cell-based
In one experiment the test system is SW480 colon cancer cells. Nature of the experiment: Cell viability assay (CellTiter-Blue), four days. To be noted: Homo sapiens, 96 h, CellTiter-Blue cell viability. As for the experimental part:
Representative compounds were screened using the following assay procedure to assess the effect on cell viability as described below.
Each compound was dissolved in DMSO as a 10 mM stock and used to prepare compound source plates. Serial dilution (1:3, 8-point dose-response curves from 10 μM to 0.0045 μM) and compound transfer was performed using the ECHO 550 (Labcyte, Sunnyvale, Calif.) into 96-well clear bottom, black-walled plates (Corning-Costar).
Approximately 2×10^3 SW480 colon cancer cells were seeded into each well and allowed to incubate in the presence or absence of compound for four days at 37° C./5% CO2. Eight replicates of DMSO-treated cells served as controls and cells treated with compound were performed in duplicate.
After incubation, 20 μL of CellTiter-Blue (Promega) was added to each well allowed to incubate for approximately 3 hours. This reagent was a buffered solution which contains resazurin, metabolically active cells were able to reduce rezarurin (blue) into resorufin (pink) which was highly fluorescent. This measured fluorescence was used as a readout for cell viability.
After incubation, the plates were read at Ex 560 nm Em 590 nm (Cytation 3, BioTek). Dose-response curves were generated and EC50 concentration values were calculated using non-linear regression curve fit in the GraphPad Prism (San Diego, Calif.) or Dotmatics' Studies Software (Bishops Stortford, UK). For EC50 of >10 μM, the percent inhibition at 10 μM is provided.
For orientation: Alamar Blue is a resazurin reagent that responds to reducing activity.

Experiment [1] relates to Primary human fibroblasts derived from IPF patients (LL29 cells) treated with TGF-β1. Nature of the experiment: Inhibition of the fibrotic process: αSMA staining in TGF-β1 treated fibroblasts. To be noted: Fibroblast, 96 h, LL29 fibroblasts treated with TGF-β1, 4 days. The text has this:
Representative compounds were screened using primary human fibroblasts (derived from IPF patients) treated with TGF-β1 to determine their ability to inhibit the fibrotic process.
Primary human fibroblasts derived from IPF patients (LL29 cells) [^1Xiaoqiu Liu, et. al., “Fibrotic Lung Fibroblasts Show Blunted Inhibition by cAMP Due to Deficient cAMP Response Element-Binding Protein Phosphorylation”, Journal of Pharmacology and Experimental Therapeutics (2005), 315(2), 678-687; ^2Watts, K. L., et. al., “RhoA signaling modulates cyclin D1 expression in human lung fibroblasts; implications for idiopathic pulmonary fibrosis”, Respiratory Research (2006), 7(1), 88] were obtained from American Type Culture Collection (ATCC) and expanded in F12 medium supplemented with 15% Fetal Bovine Serum and Penicillin/Streptomycin.
Each compound was dissolved in DMSO as a 10 mM stock and used to prepare compound source plates. Serial dilution (1:2, 11-point dose-response curves from 10 μM to 1.87 nM) and compound transfer was performed using the ECHO 550 (Labcyte, Sunnyvale, Calif.) into 384-well clear bottom assay plates (Greiner Bio-One) with appropriate DMSO backfill for a final DMSO concentration of 0.1%. LL29 cells are plated at 1,500 cells/well in 80 μL/well F12 medium supplemented with 1% Fetal Bovine Serum. One hour after addition of the cells, TGF-β1 (Peprotech; 20 ng/mL) was added to the plates to induce fibrosis (ref. 1 and 2 above). Wells treated with TGF-β1 and containing DMSO were used as controls. Cells were incubated at 37° C. and 5% CO2 for 4 days. Following incubation for 4 days, SYTOX green nucleic acid stain (Life Technologies [Thermo Fisher Scientific]) was added to the wells at a final concentration of 1 μM and incubated at room temperature for 30 min. Cells were then fixed using 4% formaldehyde (Electron Microscopy Sciences), washed 3 times with PBS followed by blocking and permeabilization using 3% Bovine Serum Albumin (BSA; Sigma) and 0.3% Triton X-100 (Sigma) in PBS. Cells were then stained with antibody specific to α-smooth muscle actin (αSMA; Abcam) (ref. 1 and 2 above) in 3% Bovine Serum Albumin (BSA; Sigma) and 0.3% Triton X-100 (Sigma) in PBS, and incubated overnight at 4° C. Cells were then washed 3 times with PBS, followed by incubation with Alexa Flor-647 conjugated secondary antibody (Life Technologies [Thermo Fisher Scientific]) and DAPI at room temperature for 1 hour. Cells were then washed 3 times with PBS and plates were sealed for imaging. αSMA staining was imaged by excitation at 630 nm and emission at 665 nm and quantified using the Compartmental Analysis program on the CellInsight CX5 (Thermo Scientific). Dead or apoptotic cells were excluded from analysis based on positive SYTOX green staining. % of total cells positive for αSMA were counted in each well and normalized to the average of 11 wells treated with TGF-β1 on the same plate using Dotmatics' Studies Software. The normalized averages (fold change over untreated) of 3 replicate wells for each compound concentration were used to create dose-responses curves and EC50 values were calculated using non-linear regression curve fit in the Dotmatics' Studies Software. For EC50 of >10 μM, the percent inhibition at 10 μM is provided.

Experiment [2] relates to IL-6 in human monocyte cell line (THP-1 cells). Put plainly: IL-6 inhibition in LPS-stimulated THP-1 cells (HTRF). The settings on record: IL-6 in LPS-stimulated THP-1 cells, HTRF. The protocol:
Human monocyte cell line (THP-1 cells; Catalog # TIB-202, ATCC, Manassas, Va.) were cultured in Roswell Park Memorial Institute (RPMI) 1640 Medium (Catalog #21870-100, Buffalo, N.Y.) with 1% L-glutamine, 1% HEPES, 1% Sodium Pyruvate, 2% Sodium Bicarbonate supplemented with 100 units/mL penicillin, 50 μg/mL streptomycin, 2-mercaptoethanol (0.05 mM) [basal medium] and 10% fetal bovine serum (Catalog #16140089, Life Technologies, Carlsbad, Calif.) at 37° C. and 5% CO2.
THP-1 cells were cultured in basal media with 1% FBS for 24 hours before the start of the assay. Each compound was dissolved in DMSO as a 10 mM stock and used to prepare compound source plates. Serial dilution (1:3, 10-point dose-response curves starting from 10 μM) and compound transfer was performed using the ECHO 550 (Labcyte, Sunnyvale, Calif.) into 384-well white low volume assay plates (Greiner Bio-One) with appropriate DMSO backfill for a final DMSO concentration of 0.1%. THP-1 cells were plated at 5000 cells/well in the 384-well plates and incubated at 37° C. for 2 h. 500 ng/mL of LPS was added after 2 hours and cells were incubated for another 22 hours at 37° C. Plates were spun in a centrifuge for 1 minute at […] and a mixture of anti-IL6 XL665, and anti-IL6 Cryptate diluted in reconstitution buffer (Cisbio Inc.) was added to each well. Following incubation for 3 hrs at room temperature, Homogeneous Time-Resolved Fluorescence (HTRF) was measured using the Envision (Perkin Elmer) at 665 nm and […]. The ratio of fluorescence at 665 nm to 620 nm was used as a readout for IL6 quantification. All samples were processed in duplicate. Readings were normalized to DMSO treated cells and normalized activities were utilized for EC50 calculations using the dose-response log (inhibitor) vs. response-variable slope (four parameters) nonlinear regression feature available in GraphPad Prism 5.0 (or Dotmatics). For EC50 of >10 μM, the percent inhibition at 10 μM is provided.
A general note: TR-FRET usually uses a lanthanide donor and a delayed reading to cut background.

Experiment [3] relates to Wnt activity (Wnt-responsive human Sp5 promoter, TCF/LEF binding sites) in SW480 colon carcinoma cells. Nature of the experiment: Wnt activity screening assay: Sp5-Luc luciferase reporter gene in SW480 cells. The settings on record: 10-point dose-response from 10 μM, incubated overnight. The source says:
The screening assay for Wnt activity is described as follows. Reporter cell lines can be generated by stably transducing cancer cell lines (e.g., colon cancer) or primary cells (e.g., IEC-6 intestinal cells) with a lentiviral construct that includes a Wnt-responsive promoter driving expression of the firefly luciferase gene.
SW480 colon carcinoma cells were transduced with a lentiviral vector expressing luciferase with a human Sp5 promoter consisting of a sequence of eight TCF/LEF binding sites. SW480 cells stably expressing the Sp5-Luc reporter gene and a hygromycin resistance gene were selected by treatment with 150 μg/mL of hygromycin for 7 days. These stably transduced SW480 cells were expanded in cell culture and used for all further screening activities. Each compound was dissolved in DMSO as a 10 mM stock and used to prepare compound source plates. Serial dilution (1:3, 10-point dose-response curves starting from 10 μM) and compound transfer was performed using the ECHO 550 (Labcyte, Sunnyvale, Calif.) into 384-well white solid bottom assay plates (Greiner Bio-One) with appropriate DMSO backfill for a final DMSO concentration of 0.1%. For Sp5-Luc reporter gene assays, the cells were plated at 4,000 cells/well in 384-well plates with medium containing 1% fetal bovine serum and incubated overnight at 37° C. and 5% CO2. Following incubation, 20 μl of BrightGlo luminescence reagent (Promega) was added to each well of the 384-well assay plates. The plates were placed on an orbital shaker for 2 min and then luminescence was quantified using the Envision (Perkin Elmer) plate reader. Readings were normalized to DMSO only treated cells, and normalized activities were utilized for EC50 calculations using the dose-response log (inhibitor) vs. response-variable slope (four parameters) nonlinear regression feature available in GraphPad Prism 5.0 (or Dotmatics). For EC50 of >10 μM, the percent inhibition at 10 μM is provided.
Background: Reporter assays use an easily measured gene product as a stand-in for the process of interest.

Each structure is given as a SMILES string.

Among the data in patent US10195185B2, “3-(1H-imidazo[4,5-C]pyridin-2-yl)-1H-pyrazolo[4,3-B]pyridines and therapeutic uses thereof” (Samumed, LLC, priority 2015, dated 2019) are EC50 values, retold here.

For orientation: EC50 means the midpoint of the concentration-response curve. A low value points to higher potency in that assay.

In the case of `c1ccc(CNCc2cncc(-c3ccc4[nH]nc(-c5nc6c(-c7cccnc7)nccc6[nH]5)c4n3)c2)cc1` [Compound 108, N-Benzyl-1-(5-(3-(4-(pyridin-3-yl)-1H-imidazo[4,5-c]pyridin-2-yl)-1H-pyrazolo [4,3-b]pyridin-5-yl)pyridin-3-yl)methanamine], the EC50 in the experiment on SW480 colon cancer cells is 2580 nM; in experiment [1] it was 9060 nM; in experiment [2], 123 nM; in experiment [3], 6780 nM.

As to `FC1(F)CCN(Cc2cncc(-c3ccc4[nH]nc(-c5nc6c(N7CCCCC7)nccc6[nH]5)c4n3)c2)C1` [Compound 194, 5-(5-((3,3-Difluoropyrrolidin-1-yl)methyl)pyridin-3-yl)-3-(4-(piperidin-1-yl)-1H-imidazo[4,5-c]pyridin-2-yl)-1H-pyrazolo[4,3-b]pyridine], the EC50 in the experiment with SW480 colon cancer cells stood at 1960 nM; in experiment [1] it was 2240 nM; in experiment [2], 2490 nM; in experiment [3] it was 3390 nM.

On to `c1ccc(-c2ccc3[nH]nc(-c4nc5cnccc5[nH]4)c3n2)nc1` [Compound 280, 3-(1H-Imidazo[4,5-c]pyridin-2-yl)-5-(pyridin-2-yl)-1H-pyrazolo[4,3-b]pyridine], for which the EC50 in the experiment on SW480 colon cancer cells is 5720 nM; in experiment [1] it was 7230 nM; in experiment [2] it was 1900 nM; in experiment [3], 1320 nM.

In the case of `c1csc(-c2nccc3[nH]c(-c4n[nH]c5ccc(-c6ccncc6)nc45)nc23)c1` [Compound 354, 5-(Pyridin-4-yl)-3-(4-(thiophen-2-yl)-1H-imidazo[4,5-c]pyridin-2-yl)-1H-pyrazolo[4,3-b]pyridine], the EC50 in the experiment with SW480 colon cancer cells came to 1050 nM; in experiment [1], 792 nM; in experiment [2], 9100 nM; in experiment [3] it was 1070 nM.

Regarding `CN(C)CCNc1cc(F)cc(-c2nccc3[nH]c(-c4n[nH]c5ccc(-c6cncc(CNCC7CCCC7)c6)nc45)nc23)c1` [Compound 473, N^1-(3-(2-(5-(5-(((Cyclopentylmethyl)amino)methyl)pyridin-3-yl)-1H-pyrazolo[4,3-b]pyridin-3-yl)-1H-imidazo[4,5-c]pyridin-4-yl)-5-fluorophenyl)-N^2,N^2-dimethylethane-1,2-diamine], the EC50 with SW480 colon cancer cells was found to be 8370 nM; in experiment [1], 5060 nM; in experiment [2], 4660 nM; in experiment [3], 4410 nM.

Take `Cc1ncc(-c2ccc3[nH]nc(-c4nc5c(-c6cccc(F)c6)nccc5[nH]4)c3n2)n1C` [Compound 509, 5-(1,2-Dimethyl-1H-imidazol-5-yl)-3-(4-(3-fluorophenyl)-1H-imidazo[4,5-c]pyridin-2-yl)-1H-pyrazolo[4,3-b]pyridine]: the EC50 in the experiment with SW480 colon cancer cells was found to be 688 nM; in experiment [1], 202 nM; in experiment [2] it was 437 nM; in experiment [3], 36 nM.

For the compound `COc1cncc(-c2ccc3[nH]nc(-c4nc5c(N6CCCCC6)nccc5[nH]4)c3n2)c1` [Compound 612, 5-(5-Methoxypyridin-3-yl)-3-(4-(piperidin-1-yl)-1H-imidazo[4,5-c]pyridin-2-yl)-1H-pyrazolo[4,3-b]pyridine], the EC50 in the experiment on SW480 colon cancer cells was determined as 3990 nM; in experiment [1], 2920 nM; in experiment [2] it was 3810 nM; in experiment [3], 3230 nM.

Consider `Oc1cncc(-c2ccc3[nH]nc(-c4nc5c(N6CCCCC6)nccc5[nH]4)c3n2)c1` [Compound 613, 5-(3-(4-(Piperidin-1-yl)-1H-imidazo[4,5-c]pyridin-2-yl)-1H-pyrazolo[4,3-b]pyridin-5-yl)pyridin-3-ol], for which the EC50 with SW480 colon cancer cells amounted to 9370 nM; in experiment [1], 9460 nM; in experiment [2], 3980 nM; in experiment [3], 2200 nM.

On to `CN1CCN(c2nccc3[nH]c(-c4n[nH]c5ccc(-c6cncc(OC7CCCCC7)c6)nc45)nc23)CC1` [Compound 639, 5-(5-(Cyclohexyloxy)pyridin-3-yl)-3-(4-(4-methylpiperazin-1-yl)-1H-imidazo[4,5-c]pyridin-2-yl)-1H-pyrazolo[4,3-b]pyridine], for which the EC50 stood at 2420 nM in the experiment with SW480 colon cancer cells, 2610 nM in experiment [1], 3420 nM in experiment [2] and 2670 nM in experiment [3].
